Measured values taken from article PMC2481421, “Gene expression response in target organ and whole blood varies as a function of target organ injury phenotype” (Genome Biology, 2008).
Where “and” joins values, the source holds several entries; their conditions need not be identical. Equal entries are not always repeated. Entries after “also recorded” stand apart in the source; their conditions may differ.

Legend:
liver = assay: Liver histopathology (H&E sections of left liver lobe, severity graded) after a single dose; conditions: for level of hepatocellular necrosis: medium dose, 6 hour
Procedure: The animals were acclimated for 14 days and observed for absence of disease.
Doses were determined with pilot experiments. For each chemical, doses that elicited a sub-toxic ('low'), a moderately toxic ('medium') or a overtly toxic ('high') response 24 hours after treatment were selected. […] For each compound, control animal groups were treated with vehicle alone. All animals were fasted for 12-18 hours prior to exposure. Groups of four to six animals were dosed between 8:30 and 9:30 a.m.; thereafter, feed was provided ad libitum. After 6, 24 or 48 hours of treatment, animals were anesthetized by isoflurane anesthesia. Whole blood was collected via retro-orbital plexus for hematology and gene expression analysis. Serum was collected for clinical chemistry. The animals were euthanized while under anesthesia by cervical dislocation and necropsied within 4 minutes of sacrifice. The left liver lobe was promptly removed and two defined cross sections were placed in 10% neutral buffered formalin for subsequent histopathology.
The cross sections that were fixed by immersion in 10% neutral buffered formalin (see 'In-life studies' section above) were transferred to histology grade alcohol for 18-24 hours after necropsy. Tissues were then processed, embedded in paraffin, sectioned at 5 microns, and stained with hematoxylin and eosin. A pathologist completed the initial microscopic evaluation of each liver sample for a given compound. […] An independent pathology quality assessment review was performed by a second pathologist on the initial histopathological findings.

serum = assay: Serum clinical chemistry (COBAS MIRA); type: in vivo, Male Fischer 344/N rats; conditions: rat, 15 mg/kg, 6 hours, animal 5
Procedure: (§1) Doses were determined with pilot experiments. […] Serum was collected for clinical chemistry.
At sacrifice, blood was collected in clotting tubes (BD Microtainer® Tubes, BD, Franklin Lakes, NJ, USA) and serum was separated. Clinical chemistry analysis was performed on all rats using a COBAS MIRA (Roche Diagnostics, Montclair, NJ, USA) using commercially available reagents from Equal Diagnostics (Exton, PA, USA) for the following assays: total protein, albumin, cholesterol, creatinine, direct bilirubin, total bilirubin, total bile acid, blood urea nitrogen and triglycerides. In addition, an enzymatic activity for the following proteins was measured: alanine aminotransferase, alkaline phosphatase, aspartate aminotransferase, lactate dehydrogenase, and sorbitol dehydrogenase. Additional data file 1 details the clinical chemistry value for each of these parameters for every animal.

[1] = In-life observations: body weight, gross findings before and at necropsy; type: in vivo, Male Fischer 344/N rats; conditions: gavage, corn oil, individual animals
Procedure: as §1

whole blood = assay: Hematology of whole blood (Technicon H*1, differential and reticulocyte counts); type: in vivo, Male Fischer 344/N rats; conditions: rat, 15 mg/kg, 6 hours, animal 5
Procedure: as §1
Blood was collected in EDTA tubes (BD Microtainer® Tubes). The samples were assayed using the Technicon H*1 hematology analyzer (Bayer Corporation, Tarrytown, NY, USA). The instrument performs white blood cell (WBC) counts by two independent methods. The values must have agreed within 10%. Manual counts and smear estimates were used to confirm values, when necessary. To monitor red blood cell (RBC) parameters, spun microhematocrits were performed for each specimen for comparison with the automated hematocrit (which is calculated from the directly measured RBCs and the mean cell volume). Control products were assayed after every tenth specimen. For WBC differential data, smears were Wright-Giemsa stained using an Ames Hema-Tek II automated slide stainer (Bayer Corporation, Ames Division, Elkhart, IN, USA) and manual WBC differential counts were performed on the first sample in each group. For reticulocyte counts, equal amounts of whole blood and New Methylene Blue stain were allowed to incubate at room temperature for at least 15 minutes. Smears were prepared and read to determine the percent reticulocytes per 1,000 RBCs. The percent value is multiplied by the RBC count to determine the absolute number of reticulocytes per microliter. Additional data file 1 details the values for each of these parameters for every animal.

[2] = categorical score, rat, 15 mg/kg, 6 hours, animal 5
[3] = severity score, rat, 15 mg/kg, 6 hours, animal 5
[4] = 150 mg/kg, 24 hours, listed as 1, 2-Dichlorobenzene
[5] = 150 mg/kg, 48 hours, listed as 1, 2-Dichlorobenzene
[6] = 1500 mg/kg, 24 hours, listed as 1, 2-Dichlorobenzene
[7] = 1500 mg/kg, 48 hours, listed as 1, 2-Dichlorobenzene

In the case of Clc1ccccc1Cl [1,2-Dichlorobenzene], the Inflammation (liver; [2]) is reported as 0, the Repair (liver; [2]) is reported as 0 and the “Response to Hepatocellular Injury” value (liver; [2]) is reported as 0. For the same compound, the “level of hepatocellular necrosis” value (liver; animal 2) was “did not have any observable necrosis”, the “level of hepatocellular necrosis” value (liver; animals 1, 3, and 4) was “minimal” and the “Bile Duct Hyperplasia” value (liver; [3]) was 0. For the same compound, the “Cellular Infiltration, Mixed Cell” value (liver; [3]) was 0, the “Cellular Infiltration, Mononuclear Cell” value (liver; [3]) was 0 and the “Cellular Infiltration, Neutrophil” value (liver; [3]) was 0. The “Centrilobular Cellular Infiltration, Mixed Cell” value (liver; [3]) was 0, the “Centrilobular Cellular Infiltration, Mononuclear Cell” value (liver; [3]) was 0 and the “Centrilobular Cellular Infiltration, Neutrophil” value (liver; [3]) was 0. The “Centrilobular Hepatocyte Degeneration” value (liver; [3]) was 0, the “Centrilobular Hepatocyte Necrosis” value (liver; [3]) was 0 and the “Centrilobular, Hepatocyte, Midzonal Degeneration” value (liver; [3]) was 0. The “Centrilobular, Hepatocyte, Midzonal Necrosis” value (liver; [3]) was 0, the Congestion (liver; [3]) was 0 and the “Depletion Glycogen” value (liver; [3]) was 0. For the same compound, the “Focal Hepatocyte Necrosis” value (liver; [3]) was 0, the Hemorrhage (liver; [3]) was 0 and the “Hepatocyte Apoptosis” value (liver; [3]) was 0. For the same compound, the “Hepatocyte Fatty Change” value (liver; [3]) was 0, the “Hepatocyte Hypertrophy” value (liver; [3]) was 0 and the “Hepatocyte Necrosis” value (liver; [3]) was 0. For the same compound, the “Hepatocyte Regeneration” value (liver; [3]) was 0, the “Midzonal Centrilobular Cellular Infiltration, Mixed Cell” value (liver; [3]) was 0 and the “Midzonal Centrilobular Cellular Infiltration, Neutrophil” value (liver; [3]) was 0. For the same compound, the “Midzonal Hepatocyte Necrosis” value (liver; [3]) was 0, the Mitosis (liver; [3]) was 0 and the “Portal Cellular Infiltration, Mixed Cell” value (liver; [3]) was 0. The “Portal Cellular Infiltration, Neutrophil” value (liver; [3]) was 0, the ALP (serum) was 269 U/L and the ALT (serum) was 54 U/L. It also gave an AST (serum) of 128 U/l, an Alb (serum) of 2.9 g/dL and a BUN (serum) of 20 mg/dL. The CK (serum) was 479 U/L, the Chol (serum) was 45 mg/dL and the Crea (serum) was 1 mg/dL. The D.Bil (serum) was 0.2, the LDH (serum) was 454 U/L and the SDH (serum) was 5 U/L. For the same compound, the T.Bil (serum) was 0.9, the T.Protein (serum) was 6.7 g/dL and the Trig (serum) was 195 mg/dL. The “Clin/Ob Prior to Necropsy” value ([1]; 15 mg/kg, 6 hours) was “Normal”, the “Gross Findings” value ([1]; 15 mg/kg, 6 hours) was “No Gross Findings” and the “Clin/Ob Prior to Necropsy” value ([1]; 15 mg/kg, 24 hours) was “normal”. For the same compound, the “Gross Findings” value ([1]; 15 mg/kg, 24 hours) was “No Gross Findings”, the “Final Body Wt.” value ([1]; 15 mg/kg, 24 hours, listed as 1, 2-Dichlorobenzene) was 225.00 g and 229.20 g and 252.70 g and 262.00 g and the “Clin/Ob Prior to Necropsy” value ([1]; 15 mg/kg, 48 hours) was “normal”. The “Gross Findings” value ([1]; 15 mg/kg, 48 hours) was “No Gross Findings”, the “Final Body Wt.” value ([1]; 15 mg/kg, 48 hours, listed as 1, 2-Dichlorobenzene) was 238.50 g and 244.20 g and 246.80 g and 250.10 g and the “Clin/Ob Prior to Necropsy” value ([1]; 150 mg/kg, 6 hours) was “Normal”. The “Gross Findings” value ([1]; 150 mg/kg, 6 hours) was “No Gross Findings”, the “Clin/Ob Prior to Necropsy” value [1, 4] was “normal; also recorded: lethargic” and the “Final Body Wt.” value [1, 4] was 217.90 g and 205.90 g and 233.30 g and 249.00 g. For the same compound, the “Gross Findings” value [1, 4] was “No Gross Findings; also recorded: left & median liver lobe mottled; left dark on edges”, the “Clin/Ob Prior to Necropsy” value ([1]; 150 mg/kg, 48 hours) was “normal” and the “Final Body Wt.” value [1, 5] was 235.70 g and 244.20 g and 239.50 g and 241.90 g. For the same compound, the “Gross Findings” value [1, 5] was “No Gross Findings; also recorded: left liver lobe rough surface”, the “Clin/Ob Prior to Necropsy” value ([1]; 1500 mg/kg, 6 hours) was “Normal” and the “Gross Findings” value ([1]; 1500 mg/kg, 6 hours) was “No Gross Findings”. The “Clin/Ob Prior to Necropsy” value [1, 6] was “lethargic; also recorded: normal”, the “Final Body Wt.” value [1, 6] was 207.10 g and 207.70 g and 219.70 g and 225.00 g and the “Gross Findings” value [1, 6] was “left & median liver lobes mottled; left dark on edges; also recorded: No Gross Findings; also recorded: left & median liver lobes mottled; median dark on edges”. For the same compound, the “Clin/Ob Prior to Necropsy” value ([1]; 1500 mg/kg, 48 hours) was “lethargic”, the “Final Body Wt.” value [1, 7] was 208.60 g and 211.10 g and the “Gross Findings” value [1, 7] was “No Gross Findings; also recorded: left & median liver lobes rough surface”. The “% (Retic)” value (whole blood) was 1.9%, the “Absolute Retic” value (whole blood) was 0.1604 and the Baso-phils (whole blood) was 0.03. The Eosino-phils (whole blood) was 0.06, the Hct (whole blood) was 43.4% and the “Hgb 9g/dL0” value (whole blood) was 15 g/dL. The “LUCs (atyical)” value (whole blood) was 0.04, the Lympho-cytes (whole blood) was 2.84 and the MCH (whole blood) was 17.8 pg. For the same compound, the MCV (whole blood) was 51.4 fL, the Mono-cytes (whole blood) was 0.2 and the “Neuts (Segs)” value (whole blood) was 1.59. For the same compound, the Platelets (whole blood) was 601 1000/ul, the RBC (whole blood) was 8.44 mil/ul and the “Spun Hct” value (whole blood) was 45%. For the same compound, the WBC (whole blood) was 4.77 1000/ul.
